Earlier results, collected in US20210227865A1, “LOW GLYCEMIC COMPOSITION AND METHODS OF MAKING AND USING THEREOF” (Seattle Gummy Company, priority 2018, published 2021).

Key:
[1] = for sweetness compared with sucrose (in words): relative to sucrose (table sugar)
[2] = in vivo
[3] = FIG. 3 (trehalose), FIG. 4 (isomaltulose)

| SMILES | sweetness compared with sucrose (in words) [1] | GI value [2] | also measured |
| --- | --- | --- | --- |
| O=C(CO)[C@@H](O)[C@@H](O)[C@H](O)CO [Tagatose, tagatose] | nearly as sweet as sucrose |  |  |
| OC[C@H]1O[C@H](OC[C@H]2OC(O)(CO)[C@@H](O)[C@@H]2O)[C@H](O)[C@@H](O)[C@@H]1O (stereo partly drawn) [Isomaltulose, isomaltulose] |  | about 30 | effect on blood glucose levels (in words) [3]: does not cause a spike in glucose levels |
| OC[C@H]1O[C@H](O[C@H]2O[C@H](CO)[C@@H](O)[C@H](O)[C@H]2O)[C@H](O)[C@@H](O)[C@@H]1O [trehalose] |  |  | effect on blood glucose levels (in words) [3]: does not cause a spike in glucose levels |
| O=C(CO)[C@@H](O)[C@H](O)[C@H](O)CO [fructose] |  | 19 |  |
| O=C(CO)[C@H](O)[C@H](O)[C@H](O)CO [Psicose, psicose] | identical to sucrose |  | sweetness relative to sucrose ([1]; relative to sucrose): 70% |
| O=C(CO)[C@H](O)[C@@H](O)[C@H](O)CO [Sorbose, sorbose] | equivalent to sucrose in sweetness |  |  |
| OC[C@H]1O[C@@](CO)(O[C@H]2O[C@H](CO)[C@@H](O)[C@H](O)[C@H]2O)[C@@H](O)[C@@H]1O [sucrose] |  | 63 |  |
